Measurements reported in the NIST ThermoML archive (doi:10.1021/je200637v).
± gives the expanded uncertainty stated by the source.

Assay: activity coefficient (dimensionless); of the first substance listed, at infinite dilution; xn = mol fraction of the nth substance listed
Conditions: Liquid, Chromatography, x1 = 0

## CCC(C)CC [3-methylpentane] + CCCCCCCC[N+](CCCCCCCC)(CCCCCCCC)CCCCCCCC.O=S(=O)([N-]S(=O)(=O)C(F)(F)F)C(F)(F)F
322.85 K
  activity coefficient: 1.22 ± 0.04
332.65 K
  activity coefficient: 1.22 ± 0.04
343.15 K
  activity coefficient: 1.21 ± 0.04

## CCC(C)CC [3-methylpentane] + CCCC[N+](C)(CCCC)CCCC.O=S(=O)([N-]S(=O)(=O)C(F)(F)F)C(F)(F)F
322.85 K
  activity coefficient: 6.1 ± 0.28
332.65 K
  activity coefficient: 6.17 ± 0.28
343.15 K
  activity coefficient: 5.86 ± 0.27

## CC#N [acetonitrile] + CCCCCCCCCC[N+](C)(C)C.O=S(=O)([N-]S(=O)(=O)C(F)(F)F)C(F)(F)F
322.85 K
  activity coefficient: 0.44 ± 0.03
332.65 K
  activity coefficient: 0.44 ± 0.03
343.15 K
  activity coefficient: 0.42 ± 0.03

## CC#N [acetonitrile] + CCCCCCCC[N+](C)(C)C.O=S(=O)([N-]S(=O)(=O)C(F)(F)F)C(F)(F)F
322.85 K
  activity coefficient: 0.48 ± 0.03
332.65 K
  activity coefficient: 0.46 ± 0.03
343.15 K
  activity coefficient: 0.44 ± 0.03

## CC#N [acetonitrile] + CCCCCCCC[N+](CCCCCCCC)(CCCCCCCC)CCCCCCCC.O=S(=O)([N-]S(=O)(=O)C(F)(F)F)C(F)(F)F
322.85 K
  activity coefficient: 0.5 ± 0.03
332.65 K
  activity coefficient: 0.49 ± 0.03
343.15 K
  activity coefficient: 0.49 ± 0.03

## CC#N [acetonitrile] + CCCC[N+](C)(CCCC)CCCC.O=S(=O)([N-]S(=O)(=O)C(F)(F)F)C(F)(F)F
322.85 K
  activity coefficient: 0.49 ± 0.03
332.65 K
  activity coefficient: 0.5 ± 0.03
343.15 K
  activity coefficient: 0.48 ± 0.03

## c1ccccc1 [benzene] + CCCCCCCCCC[N+](C)(C)C.O=S(=O)([N-]S(=O)(=O)C(F)(F)F)C(F)(F)F
322.85 K
  activity coefficient: 0.71 ± 0.03
332.65 K
  activity coefficient: 0.73 ± 0.03
343.15 K
  activity coefficient: 0.72 ± 0.03

## c1ccccc1 [benzene] + CCCCCCCC[N+](C)(C)C.O=S(=O)([N-]S(=O)(=O)C(F)(F)F)C(F)(F)F
322.85 K
  activity coefficient: 0.73 ± 0.03
332.65 K
  activity coefficient: 0.74 ± 0.03
343.15 K
  activity coefficient: 0.73 ± 0.03

## c1ccccc1 [benzene] + CCCCCCCC[N+](CCCCCCCC)(CCCCCCCC)CCCCCCCC.O=S(=O)([N-]S(=O)(=O)C(F)(F)F)C(F)(F)F
322.85 K
  activity coefficient: 0.4 ± 0.03
332.65 K
  activity coefficient: 0.41 ± 0.03
343.15 K
  activity coefficient: 0.41 ± 0.03

## c1ccccc1 [benzene] + CCCC[N+](C)(CCCC)CCCC.O=S(=O)([N-]S(=O)(=O)C(F)(F)F)C(F)(F)F
322.85 K
  activity coefficient: 0.9 ± 0.03
332.65 K
  activity coefficient: 0.93 ± 0.03
343.15 K
  activity coefficient: 0.92 ± 0.03

## CCCCO [butan-1-ol] + CCCCCCCCCC[N+](C)(C)C.O=S(=O)([N-]S(=O)(=O)C(F)(F)F)C(F)(F)F
322.85 K
  activity coefficient: 1.7 ± 0.07
332.65 K
  activity coefficient: 1.55 ± 0.06
343.15 K
  activity coefficient: 1.38 ± 0.05

## CCCCO [butan-1-ol] + CCCCCCCC[N+](C)(C)C.O=S(=O)([N-]S(=O)(=O)C(F)(F)F)C(F)(F)F
322.85 K
  activity coefficient: 2.01 ± 0.09
332.65 K
  activity coefficient: 1.8 ± 0.08
343.15 K
  activity coefficient: 1.59 ± 0.06

## CCCCO [butan-1-ol] + CCCCCCCC[N+](CCCCCCCC)(CCCCCCCC)CCCCCCCC.O=S(=O)([N-]S(=O)(=O)C(F)(F)F)C(F)(F)F
322.85 K
  activity coefficient: 3.08 ± 0.14
332.65 K
  activity coefficient: 1.12 ± 0.03
343.15 K
  activity coefficient: 1.04 ± 0.03

## CCCCO [butan-1-ol] + CCCC[N+](C)(CCCC)CCCC.O=S(=O)([N-]S(=O)(=O)C(F)(F)F)C(F)(F)F
322.85 K
  activity coefficient: 2.1 ± 0.1
332.65 K
  activity coefficient: 1.89 ± 0.08
343.15 K
  activity coefficient: 1.73 ± 0.07

## CCCC=O [butanal] + CCCCCCCCCC[N+](C)(C)C.O=S(=O)([N-]S(=O)(=O)C(F)(F)F)C(F)(F)F
322.85 K
  activity coefficient: 0.47 ± 0.03
332.65 K
  activity coefficient: 0.53 ± 0.03
343.15 K
  activity coefficient: 0.51 ± 0.03

## CCCC=O [butanal] + CCCCCCCC[N+](CCCCCCCC)(CCCCCCCC)CCCCCCCC.O=S(=O)([N-]S(=O)(=O)C(F)(F)F)C(F)(F)F
343.15 K
  activity coefficient: 0.31 ± 0.04

## CCC(C)=O [butanone] + CCCCCCCCCC[N+](C)(C)C.O=S(=O)([N-]S(=O)(=O)C(F)(F)F)C(F)(F)F
322.85 K
  activity coefficient: 0.33 ± 0.04
332.65 K
  activity coefficient: 0.32 ± 0.04
343.15 K
  activity coefficient: 0.29 ± 0.04

## CCC(C)=O [butanone] + CCCCCCCC[N+](C)(C)C.O=S(=O)([N-]S(=O)(=O)C(F)(F)F)C(F)(F)F
322.85 K
  activity coefficient: 0.41 ± 0.03
332.65 K
  activity coefficient: 0.38 ± 0.03
343.15 K
  activity coefficient: 0.34 ± 0.04

## CCC(C)=O [butanone] + CCCCCCCC[N+](CCCCCCCC)(CCCCCCCC)CCCCCCCC.O=S(=O)([N-]S(=O)(=O)C(F)(F)F)C(F)(F)F
322.85 K
  activity coefficient: 0.29 ± 0.04
332.65 K
  activity coefficient: 0.28 ± 0.04
343.15 K
  activity coefficient: 0.26 ± 0.04

## CCC(C)=O [butanone] + CCCC[N+](C)(CCCC)CCCC.O=S(=O)([N-]S(=O)(=O)C(F)(F)F)C(F)(F)F
322.85 K
  activity coefficient: 0.4 ± 0.03
332.65 K
  activity coefficient: 0.38 ± 0.03
343.15 K
  activity coefficient: 0.35 ± 0.04

## C1CCCCCC1 [cycloheptane] + CCCCCCCCCC[N+](C)(C)C.O=S(=O)([N-]S(=O)(=O)C(F)(F)F)C(F)(F)F
322.85 K
  activity coefficient: 7.7 ± 0.35
332.65 K
  activity coefficient: 10.8 ± 0.49
343.15 K
  activity coefficient: 14.6 ± 0.67

## C1CCCCCC1 [cycloheptane] + CCCCCCCC[N+](C)(C)C.O=S(=O)([N-]S(=O)(=O)C(F)(F)F)C(F)(F)F
322.85 K
  activity coefficient: 10.8 ± 0.5
332.65 K
  activity coefficient: 14.7 ± 0.68
343.15 K
  activity coefficient: 19.4 ± 0.9

## C1CCCCCC1 [cycloheptane] + CCCCCCCC[N+](CCCCCCCC)(CCCCCCCC)CCCCCCCC.O=S(=O)([N-]S(=O)(=O)C(F)(F)F)C(F)(F)F
322.85 K
  activity coefficient: 2.21 ± 0.1
332.65 K
  activity coefficient: 3.16 ± 0.14
343.15 K
  activity coefficient: 4.37 ± 0.2

## C1CCCCCC1 [cycloheptane] + CCCC[N+](C)(CCCC)CCCC.O=S(=O)([N-]S(=O)(=O)C(F)(F)F)C(F)(F)F
322.85 K
  activity coefficient: 12.4 ± 0.57
332.65 K
  activity coefficient: 17.7 ± 0.82
343.15 K
  activity coefficient: 23.9 ± 1.1

## C1CCCCC1 [cyclohexane] + CCCCCCCCCC[N+](C)(C)C.O=S(=O)([N-]S(=O)(=O)C(F)(F)F)C(F)(F)F
322.85 K
  activity coefficient: 2.9 ± 0.13
332.65 K
  activity coefficient: 2.96 ± 0.13
343.15 K
  activity coefficient: 2.8 ± 0.13

## C1CCCCC1 [cyclohexane] + CCCCCCCC[N+](C)(C)C.O=S(=O)([N-]S(=O)(=O)C(F)(F)F)C(F)(F)F
322.85 K
  activity coefficient: 4.08 ± 0.19
332.65 K
  activity coefficient: 3.84 ± 0.17
343.15 K
  activity coefficient: 3.57 ± 0.16

## C1CCCCC1 [cyclohexane] + CCCCCCCC[N+](CCCCCCCC)(CCCCCCCC)CCCCCCCC.O=S(=O)([N-]S(=O)(=O)C(F)(F)F)C(F)(F)F
322.85 K
  activity coefficient: 0.95 ± 0.03
332.65 K
  activity coefficient: 0.94 ± 0.03
343.15 K
  activity coefficient: 0.92 ± 0.03

## C1CCCCC1 [cyclohexane] + CCCC[N+](C)(CCCC)CCCC.O=S(=O)([N-]S(=O)(=O)C(F)(F)F)C(F)(F)F
322.85 K
  activity coefficient: 4.74 ± 0.22
332.65 K
  activity coefficient: 4.71 ± 0.21
343.15 K
  activity coefficient: 4.44 ± 0.2

## CCCCCCCCCC [decane] + CCCCCCCCCC[N+](C)(C)C.O=S(=O)([N-]S(=O)(=O)C(F)(F)F)C(F)(F)F
322.85 K
  activity coefficient: 10.1 ± 0.46
332.65 K
  activity coefficient: 9.82 ± 0.45
343.15 K
  activity coefficient: 9.32 ± 0.43

## CCCCCCCCCC [decane] + CCCCCCCC[N+](C)(C)C.O=S(=O)([N-]S(=O)(=O)C(F)(F)F)C(F)(F)F
322.85 K
  activity coefficient: 19.3 ± 0.89
332.65 K
  activity coefficient: 17.9 ± 0.83
343.15 K
  activity coefficient: 16.2 ± 0.75

## CCCCCCCCCC [decane] + CCCCCCCC[N+](CCCCCCCC)(CCCCCCCC)CCCCCCCC.O=S(=O)([N-]S(=O)(=O)C(F)(F)F)C(F)(F)F
322.85 K
  activity coefficient: 2.3 ± 0.1
332.65 K
  activity coefficient: 2.32 ± 0.11
343.15 K
  activity coefficient: 2.21 ± 0.1

## CCCCCCCCCC [decane] + CCCC[N+](C)(CCCC)CCCC.O=S(=O)([N-]S(=O)(=O)C(F)(F)F)C(F)(F)F
322.85 K
  activity coefficient: 19.6 ± 0.91
332.65 K
  activity coefficient: 19.2 ± 0.89
343.15 K
  activity coefficient: 17.8 ± 0.82

## ClCCl [dichloromethane] + CCCCCCCCCC[N+](C)(C)C.O=S(=O)([N-]S(=O)(=O)C(F)(F)F)C(F)(F)F
322.85 K
  activity coefficient: 0.51 ± 0.03
332.65 K
  activity coefficient: 0.55 ± 0.03
343.15 K
  activity coefficient: 0.56 ± 0.03
